# Test results: patent US8057829B2, “Methods for repelling insects using sesquiterpene hydrocarbons and their derivatives” (Sterling International Inc., priority 2008, dated 2011)
# How the values were obtained:
# [1] = system: female antennae of sand fly Phlebotomus papatasi and mosquitoes Aedes aegypti, Anopheles gambiae, Anopheles stephensi; experiment: GC-EAD responses of sand fly and three mosquitoes to synthetic mixtures; settings: about 100 ng of each compound, on one or more of the sand fly or the mosquitoes, FIGS. 9 and 10
# Experimental: The GC-EAD responses of female antennae of the sand fly, Phlebotomus papatasi, and three species of mosquitoes, Aedes aegypti, Anopheles gambiae, and anopheles stephensi were tested on a synthetic mixture of 1-octen-3-ol, six sesquiterpene hydrocarbons including (+)-longipinene, (−)-isolongifolene, (+)-longifolene, β-caryophyllene, isolongifolenone, and α-humulene, and several known insect repellents including ZE-nepetalactone, EZ-nepetalactone, with about 100 ng of each compound in the mixture.
# The GC-EAD responses of female antennae of the sand fly, Phlebotomus papatasi, and three species mosquitoes, Aedes aegypti, Anopheles gambiae, and anopheles stephensi were tested on a synthetic mixture of 1-octen-3-ol, linalool, β-caryophyllene oxide, isocaryophyllene, β-caryophyllene, and α-humulene, and DEET, with about 100 ng of each compound in the mixture.
# (§1) The following procedures were employed to test the EAD response of an insect antenna to a repellent compound. The GC-EAD technique provides an efficient tool for screening behaviorally active repellents. Several synthetic mixtures of potential insect repellent candidates, mostly sesquiterpene hydrocarbons and derivatives, were analyzed in splitless mode using a Varian CP-3800 GC equipped with a polar column (Innowax; 1.0 μm film thickness, 30 m×0.53 mm ID; J & W Scientific), and a 1:1 effluent splitter that allowed simultaneous flame ionization detection (FID) and EAD of the separated volatile compounds. Helium was used as the carrier gas, and the injector temperature was 220° C. The column temperature was 50° C. for 2 min, rising to 240° C. at 10° C./min, then held for 10 min. The outlet for the EAD was held in a humidified air stream flowing at 0.5 liter/min. over an antennal preparation. A glass capillary indifferent electrode filled with Beadle-Ephrussi Ringer, and grounded via a silver wire, was inserted into the severed insect's head with the antennae. A similar recording electrode connected to a high-impedance DC amplifier with automatic baseline drift compensation was placed in contact with the distal end of one antenna (Zhang et al., Chemoecology, 10:69-80 (2000)). The antennal signals were stored and analyzed on a PC equipped with a serial IDAC interface box and the program EAD ver. 2.5 (Syntech, Hilversum, The Netherlands). The compound 1-octen-3-ol (known attractant for many flies and mosquitoes) was included in most of the synthetic mixtures, as a positive control. The results of the experiments are shown in FIGS. 1-10 and described above.
# [2] = system: female mosquito Culex pipiens antenna; experiment: GC-EAD antennal response, Culex pipiens; settings: female Culex pipiens antennae; about 100 ng of each compound; responses weak, but repeatable; FIGS. 7 and 8
# Experimental: The GC-EAD responses of the female mosquito Culex pipiens antenna were tested on a synthetic mixture of 1-octen-3-ol, and two sesquiterpene hydrocarbons, β-caryophyllene and isocaryophyllene, with about 100 ng of each compound in the mixture.
# The GC-EAD responses of the female mosquito Culex pipiens antenna were tested on a synthetic mixture of 1-octen-3-ol, and representative sesquiterpene hydrocarbons and derivatives including (+)-longipinene, (−)-isolongifolene, (+)-longifolene, β-caryophyllene, and isolongifolenone, with about 100 ng of each compound in the mixture.
# Antennal responses were weak, but repeatable, thus are considered to be true responses.
# as §1
# [3] = system: housefly (Musca domestica) antenna; experiment: GC-EAD antennal response, housefly; settings: female housefly antenna; synthetic mixture, about 100 ng of each compound; FIG. 3
# Excerpt: The sesquiterpene hydrocarbons and their derivatives disclosed herein have been identified as suitable insect repellents by testing via a gas chromatographic-electroantennographic detection (GC-EAD) method as described in Example 1 below. This method can be used to efficiently screen for potentially behaviorally active compounds, including insect repellents, attractants, deterrents, or attraction-inhibitors from complex natural sources or synthetic mixtures.
# The GC-EAD responses of the female housefly antenna were tested on a synthetic mixture of 1-octen-3-ol, a known attractant used as a positive control, and representative sesquiterpene hydrocarbons and derivatives, (+)-longipinene, (−)-isolongifolene, (+)-longifolene, β-caryophyllene, α-humulene, and isolongifolenone, with about 100 ng of each compound in the mixture.
# The GC-EAD responses of the male housefly antenna were tested on a synthetic mixture of 1-octen-3-ol, and two representative sesquiterpenes, β-caryophyllene and isocaryophyllene, with about 100 ng of each compound in the mixture.
# as §1
# houseflies = experiment: Laboratory sticky trap bioassay of spatial repellency with egg powder attractant; assay type: in vivo, housefly (Musca domestica); settings: egg powder plus repellent, FIG. 13
# Experimental: Laboratory bioassay tests were carried out to investigate the efficacy of some of the EAD-active compounds described above to act as spatial repellents against several insects. The procedure for the bioassay tests is described in Example 2 below. Briefly stated, the bioassay included using egg powder (EP) as an attractant for flies, while the compound whose insect repellency was being tested was placed in proximity to the egg powder. In FIGS. 11-13, the bioassay was carried out on houseflies using devices known by the designation Trécé Pherocon® VI sticky traps.
# The following lab bioassay tests were employed to illustrate the efficacy of the compounds to effectively act as spatial repellents for flies. Three sets of tests were conducted in a fly testing room (23° C., 70% RH, and 12/12 (L/D) light regime illuminated by fluorescent lights). Two sets of tests were carried out using Trécé Pherocon® VI traps with sticky inserts, which were set up on poles evenly spaced on a rotating table. The traps were ca. 1 m above a table surface, and ca. 1 m apart from each other. Two grams of egg powder in a white cap (4 cm in diameter, 0.5 cm in height) used as an attractant was put on the center of the sticky insert in the sticky trap. The potential repellent candidate chemicals were loaded into polyethylene bags, and were hung under the inner roof of the traps, 1-1.5 cm above the egg powder attractant. A control had the empty white cap and blank polyethylene bag, while the positive control had only the egg powder and an empty polyethylene bag. The test table was rotated 1.5 r.p.h. […] About 200-300 houseflies (2-3 days old) were released into the testing room for each test. Tests were normally run from 8:00 am to 5:00 pm, and the numbers of houseflies caught in each trap were counted after each test. The results of these tests are shown in FIGS. 11-13 and described above.
compound,measurement,setting,value
"CC1(C)C2=CCCC(C)(C)C23CCC1C3 (single isomer, unassigned; (-)) [(−)-isolongifolene, 2,2,7,7-tetramethyltricyclo undec-5-ene]",GC-EAD antennal activity,[1],antennally active
same,GC-EAD antennal activity,[2],active
same,GC-EAD antennal activity,[3],active
same,female house flies per trap,houseflies; egg powder alone 76 females,39 house flies per trap
same,male house flies per trap,houseflies; egg powder alone 95 males,30 house flies per trap
